Consider ten compounds from ChEMBL document CHEMBL1177682, “Hypoxic selectivity and solubility--investigating the properties of A-ring substituted nitro seco-1,2,9,9a-tetrahydrocyclopropa[c]benz[e]indol-4-ones (nitroCBIs) as hypoxia-activated prodrugs for antitumor therapy” (Bioorg Med Chem, 2010).

The subject of series [1] is SK-OV-3. Put plainly: Hypoxic cytotoxicity ratio IC50 for human SKOV3 cells under aerobic condition to IC50 for human HT-29 cells under hypoxic condition. Type of series: functional.
Series [2] deals with SK-OV-3. Kind of series: Cytotoxicity against human SKOV3 cells under hypoxic condition after 5 days by SRB assay. Type of series: functional, cell-based. The following applies: SK-OV-3, 120 h.
The test system of series [3] is HT-29. Put plainly: Hypoxic cytotoxicity ratio IC50 for human HT-29 cells under aerobic condition to IC50 for human HT-29 cells under hypoxic condition. Type of series: functional.
In series [4] the test system is HT-29. Kind of series: Cytotoxicity against human HT-29 cells under aerobic condition after 5 days by SRB assay. Type of series: functional, cell-based. As to conditions: HT-29, 120 h.
Series [5] has as its system SK-OV-3. Put plainly: Cytotoxicity against human SKOV3 cells under aerobic condition after 5 days by SRB assay. The following applies: SK-OV-3, 120 h. Type of series: functional, cell-based.
The subject of series [6] is HT-29. Put plainly: Cytotoxicity against human HT-29 cells under hypoxic condition after 5 days by SRB assay. Type of series: functional, cell-based. As to conditions: HT-29, 120 h.
Series [7] in a line: Toxicity against human HT-29 xenografted ip dosed CD1 mouse assessed as maximum tolerated dose. Type of series: organism-based. As to conditions: in vivo, read-out: Activity.
In series [8] the test system is HT-29. Put plainly: Antitumor activity against human HT-29 cells xenografted in CD1 mouse after 18 hrs. Type of series: functional, cell-based.
Series [9] is described as follows: AUC (0 to 180 mins) in CD1 mouse at 23.7 umol/kg, iv. Also noted: time < 3 hr, dose 23.7 umol/kg, route intravenous. Type of series: ADME, organism-based. As to conditions: plasma.
Series [10] can be described thus: Plasma concentration in CD1 mouse at 23.7 umol/kg, iv after 15 mins. Type of series: ADME, organism-based.

Each structure is given as a SMILES string. Activity calls are given as the source filed them. The rule behind the calls is not given here.

As to `CN(C)CCOc1ccc2[nH]c(C(=O)N3CC(CCl)c4c3cc([N+](=O)[O-])c3cc(S(=O)(=O)NO)ccc43)cc2c1` (stereo not given), the “Ratio IC50” value worked out at 55 with SK-OV-3 [1] and 160 in the series on HT-29 [3]. Also, the IC50 with SK-OV-3 [2] came to 450 nM; in the series on HT-29 [4], 24000 nM; in the series on SK-OV-3 [5], 24000 nM; in the series on HT-29 [6] it was 150 nM.
Regarding `CN(C)CCOc1ccc2[nH]c(C(=O)N3CC(CCl)c4c3cc([N+](=O)[O-])c3cc(S(=O)(=O)NN)ccc43)cc2c1` (stereo not given), the figures for the “Ratio IC50” value in the series with SK-OV-3 [1] and in the series with HT-29 [3] were 160 and 220, respectively. For the same compound, the 50% inhibitory concentration (IC50) is 210 nM with SK-OV-3 [2], 31000 nM in the series with HT-29 [4], 33000 nM in the series on SK-OV-3 [5] and 160 nM in the series with HT-29 [6].
As for `COc1cc2cc(C(=O)N3CC(CCl)c4c3cc([N+](=O)[O-])c3ccc(C(=O)NCCN(C)C)cc43)[nH]c2c(OC)c1OC` (stereo not given), the “Ratio IC50” value is reported as 16 in the series with SK-OV-3 [1] and 2.4 in the series on HT-29 [3]. In addition, the IC50 in the series with SK-OV-3 [2] amounted to 180 nM; in the series with HT-29 [4] it was 1300 nM; in the series on SK-OV-3 [5], 2500 nM; with HT-29 [6], 540 nM.
With `CN(C)CCNS(=O)(=O)c1ccc2c3c(cc([N+](=O)[O-])c2c1)N(C(=O)c1cc2cc(OCCN(C)C)ccc2[nH]1)CC3CCl` (stereo not given), the “Ratio IC50” value is recorded as 130 in the series on SK-OV-3 [1] and 110 with HT-29 [3]. The MTD in series [7] is 23.7 µmol/kg. Also, in the series on HT-29 [8], the outcome was inactive. In addition, the concentration for half-maximal inhibition (IC50) in the series on SK-OV-3 [2] came to 6.6 nM; in the series with HT-29 [4], 730 nM; in the series on SK-OV-3 [5], 830 nM; in the series with HT-29 [6], 9 nM. For the same compound, in [9], the AUC(0-t) at 3 h is under 0.03 µM·h. In [10], the concentration at […] was under 10 nM.
Take `CN(C)CCOc1ccc2[nH]c(C(=O)N3CC(CCl)c4c3cc([N+](=O)[O-])c3cc(N)ccc43)cc2c1` (stereo not given): the entries for the “Ratio IC50” value in the series on SK-OV-3 [1] and with HT-29 [3] were 2 and 2.4, respectively. For the same compound, the IC50 stood at 1300 nM in the series on SK-OV-3 [2], 1800 nM in the series on HT-29 [4], 2500 nM in the series on SK-OV-3 [5] and 760 nM with HT-29 [6].
For `CNS(=O)(=O)c1ccc2c3c(cc([N+](=O)[O-])c2c1)N(C(=O)c1cc2cc(OCCN(C)C)ccc2[nH]1)CC3CCl` (stereo not given), the “Ratio IC50” value came to 21 with SK-OV-3 [1] and 24 in the series on HT-29 [3]. For the same compound, the IC50 in the series on SK-OV-3 [2] is 120 nM; with HT-29 [4], 2700 nM; in the series on SK-OV-3 [5], 2600 nM; in the series with HT-29 [6], 130 nM.
As to `CNS(=O)(=O)c1ccc2c3c(cc(N)c2c1)N(C(=O)c1cc2cc(OCCN(C)C)ccc2[nH]1)CC3CCl` (stereo not given), the IC50 was determined as 11 nM in the series on SK-OV-3 [2], 24 nM with HT-29 [4], 20 nM in the series on SK-OV-3 [5] and 20 nM in the series on HT-29 [6].
As to `CN(C)CCOc1ccc2[nH]c(C(=O)N3CC(CCl)c4c3cc([N+](=O)[O-])c3cc(S(=O)(=O)N(C)C)ccc43)cc2c1` (stereo not given), the “Ratio IC50” value in the series on SK-OV-3 [1] worked out at 2.4; in the series with HT-29 [3], 3.6. Besides, the IC50 is 210 nM in the series with SK-OV-3 [2], 1100 nM in the series with HT-29 [4], 500 nM with SK-OV-3 [5] and 370 nM in the series with HT-29 [6].
Turning to `COc1cc2cc(C(=O)N3CC(CCl)c4c3cc([N+](=O)[O-])c3cc(C(=O)NCCN(C)C)ccc43)[nH]c2c(OC)c1OC` (stereo not given), the “Ratio IC50” value with SK-OV-3 [1] turned out to be 24; in the series on HT-29 [3] it was 5.9. The IC50 with SK-OV-3 [2] is 140 nM; with HT-29 [4] it was 1500 nM; in the series on SK-OV-3 [5] it was 2000 nM; in the series on HT-29 [6], 300 nM.
Take `CN(C)CCOc1ccc2[nH]c(C(=O)N3CC(CCl)c4c3cc([N+](=O)[O-])c3cc(S(N)(=O)=O)ccc43)cc2c1` (stereo not given): the IC50 is 28 nM with SK-OV-3 [2], 4600 nM in the series with HT-29 [4], 6900 nM with SK-OV-3 [5] and 18 nM in the series with HT-29 [6].
